Measurements reported in BigSolDB 2.1.

CC1(C)O[C@H]2CC(=O)OC[C@]23[C@H]2CC[C@@]4(C)[C@H](c5ccoc5)OC(=O)[C@H]5O[C@]54[C@]2(C)C(=O)C[C@@H]13
solubility (mole fraction)
Conditions	283.2 K	288.2 K	293.2 K	298.2 K	303.2 K	308.2 K	313.2 K	318.2 K
in acetone	0.00409	0.00454	0.00465	0.00471	0.00474	0.00497	0.00516	0.0055
in methanol	7.08e-05	7.81e-05	9.2e-05	0.000101	0.00012	0.000137	0.000162	0.000192
in water	1.17e-07	2.37e-07	4.77e-07	5.97e-07	8.3e-07	1.04e-06	1.17e-06	1.49e-06
